Laboratory results reported in ChEMBL document CHEMBL3526109 (Drug Metab Dispos, 2011).

How the values were obtained:
[1] = tested on: Plasma; test: Drug level in cynomolgus monkey plasma assessed as compound formation treated with [14C]brivanib alaninate at 10 mg/kg, po administered as single dose via gavage measured after 12 hrs by mass spectrometry; assay type: ADME, organism-based, Macaca fascicularis; conditions: in vivo
[2] = tested on: Plasma; test: Drug level in human plasma assessed as compound formation treated with [14C]brivanib alaninate at 800 mg, po administered as single dose via gavage measured after 1 hr by mass spectrometry; assay type: ADME, organism-based; conditions: in vivo
[3] = tested on: Plasma; test: Drug level in human plasma assessed as compound formation treated with [14C]brivanib alaninate at 800 mg, po administered as single dose via gavage measured after 2 hrs by mass spectrometry; assay type: ADME, organism-based; conditions: in vivo
[4] = tested on: Plasma; test: Drug level in human plasma assessed as compound formation treated with [14C]brivanib alaninate at 800 mg, po administered as single dose via gavage measured after 4 hrs by mass spectrometry; assay type: ADME, organism-based; conditions: in vivo
[5] = tested on: Plasma; test: Drug level in human plasma assessed as compound formation treated with [14C]brivanib alaninate at 800 mg, po administered as single dose via gavage measured after 8 hrs by mass spectrometry; assay type: ADME, organism-based; conditions: in vivo
[6] = tested on: Plasma; test: Drug level in human plasma assessed as compound formation treated with [14C]brivanib alaninate at 800 mg, po administered as single dose via gavage measured after 12 hrs by mass spectrometry; assay type: ADME, organism-based; conditions: in vivo
[7] = Drug level in bile duct-cannulated rat bile treated with [14C]brivanib alaninate at 100 mg/kg, po administered as single dose via gavage by mass spectrometry; assay type: ADME, organism-based; conditions: in vivo
[8] = Drug level in bile duct-cannulated cynomolgus monkey bile treated with [14C]brivanib alaninate at 10 mg/kg, po administered as single dose via gavage by mass spectrometry; assay type: ADME, organism-based, Macaca fascicularis; conditions: in vivo
[9] = Drug excretion in Sprague-Dawley rat urine treated with [14C]brivanib alaninate at 100 mg/kg, po administered as single dose via gavage by HPLC analysis; assay type: ADME, organism-based; conditions: in vivo
[10] = Drug excretion in Sprague-Dawley rat feces treated with [14C]brivanib alaninate at 100 mg/kg, po administered as single dose via gavage by HPLC analysis; assay type: ADME, organism-based; conditions: in vivo
[11] = Drug excretion in cynomolgus monkey urine treated with [14C]brivanib alaninate at 10 mg/kg, po administered as single dose via gavage by HPLC analysis; assay type: ADME, organism-based, Macaca fascicularis; conditions: in vivo
[12] = Drug excretion in cynomolgus monkey feces treated with [14C]brivanib alaninate at 10 mg/kg, po administered as single dose via gavage by HPLC analysis; assay type: ADME, organism-based, Macaca fascicularis; conditions: in vivo
[13] = Drug excretion in human urine treated with [14C]brivanib alaninate at 800 mg, po administered as single dose […] by HPLC analysis; assay type: ADME, organism-based; conditions: in vivo
[14] = Drug excretion in human feces treated with [14C]brivanib alaninate at 800 mg, po administered as single dose […] by HPLC analysis; assay type: ADME, organism-based; conditions: in vivo
[15] = tested on: Plasma; test: Drug level in Sprague-Dawley rat plasma assessed as compound formation treated with [14C]brivanib alaninate at 100 mg/kg, po administered as single dose via gavage measured after 1 hr by mass spectrometry; assay type: ADME, organism-based; conditions: in vivo
[16] = tested on: Plasma; test: Drug level in Sprague-Dawley rat plasma assessed as compound formation treated with [14C]brivanib alaninate at 100 mg/kg, po administered as single dose via gavage measured after 2 hrs by mass spectrometry; assay type: ADME, organism-based; conditions: in vivo
[17] = tested on: Plasma; test: Drug level in Sprague-Dawley rat plasma assessed as compound formation treated with [14C]brivanib alaninate at 100 mg/kg, po administered as single dose via gavage measured after 6 hrs by mass spectrometry; assay type: ADME, organism-based; conditions: in vivo
[18] = tested on: Plasma; test: Drug level in cynomolgus monkey plasma assessed as compound formation treated with [14C]brivanib alaninate at 10 mg/kg, po administered as single dose via gavage measured after 1 hr by mass spectrometry; assay type: ADME, organism-based, Macaca fascicularis; conditions: in vivo
[19] = tested on: Plasma; test: Drug level in cynomolgus monkey plasma assessed as compound formation treated with [14C]brivanib alaninate at 10 mg/kg, po administered as single dose via gavage measured after 2 hrs by mass spectrometry; assay type: ADME, organism-based, Macaca fascicularis; conditions: in vivo
[20] = tested on: Plasma; test: Drug level in cynomolgus monkey plasma assessed as compound formation treated with [14C]brivanib alaninate at 10 mg/kg, po administered as single dose via gavage measured after 4 hrs by mass spectrometry; assay type: ADME, organism-based, Macaca fascicularis; conditions: in vivo
[21] = tested on: Plasma; test: Drug level in cynomolgus monkey plasma assessed as compound formation treated with [14C]brivanib alaninate at 10 mg/kg, po administered as single dose via gavage measured after 6 hrs by mass spectrometry; assay type: ADME, organism-based, Macaca fascicularis; conditions: in vivo
[22] = tested on: Plasma; test: Drug level in human plasma assessed as compound formation treated with [14C]brivanib alaninate at 800 mg, po administered as single dose via gavage measured after 4 hrs by HPLC analysis; assay type: ADME, organism-based; conditions: in vivo
[23] = tested on: Plasma; test: Drug level in human plasma assessed as compound formation treated with [14C]brivanib alaninate at 800 mg, po administered as single dose via gavage measured after 8 hrs by HPLC analysis; assay type: ADME, organism-based; conditions: in vivo
[24] = tested on: Plasma; test: Drug level in human plasma assessed as compound formation treated with [14C]brivanib alaninate at 800 mg, po administered as single dose via gavage measured after 12 hrs by HPLC analysis; assay type: ADME, organism-based; conditions: in vivo
[25] = tested on: Liver microsome; test: Drug level in human liver microsomes treated with brivanib by LC-MS/MS analysis in presence of NADPH; assay type: ADME
[26] = biological target: Vascular endothelial growth factor receptor 2 (Homo sapiens, UniProt P35968); test: Inhibition of human recombinant VEGFR-2
[27] = biological target: Fibroblast growth factor receptor 1 (Homo sapiens, UniProt P11362); test: Inhibition of human recombinant FGFR-1
[28] = tested on: Plasma; test: Drug level in Sprague-Dawley rat plasma assessed as compound formation treated with [14C]brivanib alaninate at 100 mg/kg, po administered as single dose via gavage measured after 1 hr by HPLC analysis; assay type: ADME, organism-based; conditions: in vivo
[29] = tested on: Plasma; test: Drug level in Sprague-Dawley rat plasma assessed as compound formation treated with [14C]brivanib alaninate at 100 mg/kg, po administered as single dose via gavage measured after 2 hrs by HPLC analysis; assay type: ADME, organism-based; conditions: in vivo
[30] = tested on: Plasma; test: Drug level in Sprague-Dawley rat plasma assessed as compound formation treated with [14C]brivanib alaninate at 100 mg/kg, po administered as single dose via gavage measured after 6 hrs by HPLC analysis; assay type: ADME, organism-based; conditions: in vivo
[31] = tested on: Plasma; test: Drug level in cynomolgus monkey plasma assessed as compound formation treated with [14C]brivanib alaninate at 10 mg/kg, po administered as single dose via gavage measured after 6 hrs by HPLC analysis; assay type: ADME, organism-based, Macaca fascicularis; conditions: in vivo
[32] = tested on: Plasma; test: Drug level in cynomolgus monkey plasma assessed as compound formation treated with [14C]brivanib alaninate at 10 mg/kg, po administered as single dose via gavage measured after 12 hrs by HPLC analysis; assay type: ADME, organism-based, Macaca fascicularis; conditions: in vivo
[33] = tested on: Plasma; test: Drug level in human plasma assessed as compound formation treated with [14C]brivanib alaninate at 800 mg, po administered as single dose via gavage measured after 1 hr by HPLC analysis; assay type: ADME, organism-based; conditions: in vivo
[34] = tested on: Plasma; test: Drug level in human plasma assessed as compound formation treated with [14C]brivanib alaninate at 800 mg, po administered as single dose via gavage measured after 2 hrs by HPLC analysis; assay type: ADME, organism-based; conditions: in vivo
[35] = Drug level in cynomolgus monkey urine treated with [14C]brivanib alaninate at 10 mg/kg, po administered as single dose via gavage by mass spectrometry; assay type: ADME, organism-based, Macaca fascicularis; conditions: in vivo
[36] = tested on: Homo sapiens; test: Drug uptake in human plasma treated with [14C]brivanib alaninate assessed as AUC (0 to 12 hrs) of total radio activity at 800 mg, po administered as single oral dose by HPLC analysis; assay type: ADME, organism-based; conditions: in vivo
[37] = tested on: Rattus norvegicus; test: AUC (0 to 6 hrs) Sprague-Dawley rat plasma treated with [14C]brivanib alaninate at 100 mg/kg, po administered as single oral dose by HPLC analysis; assay type: ADME, organism-based; conditions: in vivo
[38] = tested on: Cynomolgus monkey; test: AUC (0 to 4 hrs) cynomolgus monkey plasma treated with [14C]brivanib alaninate at 10 mg/kg, po administered as single oral dose by HPLC analysis; assay type: ADME, organism-based, Macaca fascicularis; conditions: in vivo
[39] = tested on: Homo sapiens; test: AUC (0 to 12 hrs) human plasma treated with [14C]brivanib alaninate at 800 mg, po administered as single oral dose by HPLC analysis; assay type: ADME, organism-based; conditions: in vivo
[40] = Drug excretion in bile duct-cannulated rat bile treated with [14C]brivanib alaninate at 100 mg/kg, po administered as single dose via gavage by HPLC analysis; assay type: ADME, organism-based; conditions: in vivo
[41] = Drug excretion in bile duct-cannulated cynomolgus monkey bile treated with [14C]brivanib alaninate at 10 mg/kg, po administered as single dose via gavage by HPLC analysis; assay type: ADME, organism-based, Macaca fascicularis; conditions: in vivo
[42] = tested on: Plasma; test: Drug level in cynomolgus monkey plasma assessed as compound formation treated with [14C]brivanib alaninate at 10 mg/kg, po administered as single dose via gavage measured after 1 hr by HPLC analysis; assay type: ADME, organism-based, Macaca fascicularis; conditions: in vivo
[43] = tested on: Plasma; test: Drug level in cynomolgus monkey plasma assessed as compound formation treated with [14C]brivanib alaninate at 10 mg/kg, po administered as single dose via gavage measured after 2 hrs by HPLC analysis; assay type: ADME, organism-based, Macaca fascicularis; conditions: in vivo
[44] = tested on: Plasma; test: Drug level in cynomolgus monkey plasma assessed as compound formation treated with [14C]brivanib alaninate at 10 mg/kg, po administered as single dose via gavage measured after 4 hrs by HPLC analysis; assay type: ADME, organism-based, Macaca fascicularis; conditions: in vivo
[45] = tested on: Cynomolgus monkey; test: Drug uptake in cynomolgus monkey plasma treated with [14C]brivanib alaninate assessed as AUC (0 to 4 hrs) of total radio activity at 10 mg/kg, po administered as single oral dose by HPLC analysis; assay type: ADME, organism-based, Macaca fascicularis; conditions: in vivo
[46] = tested on: Rattus norvegicus; test: Drug uptake in Sprague-Dawley rat plasma treated with [14C]brivanib alaninate assessed as AUC (0 to 6 hrs) of total radio activity at 100 mg/kg, po administered as single oral dose by HPLC analysis; assay type: ADME, organism-based; conditions: in vivo

Chain of Fibroblast growth factor receptor 1 (P11362 whole entry): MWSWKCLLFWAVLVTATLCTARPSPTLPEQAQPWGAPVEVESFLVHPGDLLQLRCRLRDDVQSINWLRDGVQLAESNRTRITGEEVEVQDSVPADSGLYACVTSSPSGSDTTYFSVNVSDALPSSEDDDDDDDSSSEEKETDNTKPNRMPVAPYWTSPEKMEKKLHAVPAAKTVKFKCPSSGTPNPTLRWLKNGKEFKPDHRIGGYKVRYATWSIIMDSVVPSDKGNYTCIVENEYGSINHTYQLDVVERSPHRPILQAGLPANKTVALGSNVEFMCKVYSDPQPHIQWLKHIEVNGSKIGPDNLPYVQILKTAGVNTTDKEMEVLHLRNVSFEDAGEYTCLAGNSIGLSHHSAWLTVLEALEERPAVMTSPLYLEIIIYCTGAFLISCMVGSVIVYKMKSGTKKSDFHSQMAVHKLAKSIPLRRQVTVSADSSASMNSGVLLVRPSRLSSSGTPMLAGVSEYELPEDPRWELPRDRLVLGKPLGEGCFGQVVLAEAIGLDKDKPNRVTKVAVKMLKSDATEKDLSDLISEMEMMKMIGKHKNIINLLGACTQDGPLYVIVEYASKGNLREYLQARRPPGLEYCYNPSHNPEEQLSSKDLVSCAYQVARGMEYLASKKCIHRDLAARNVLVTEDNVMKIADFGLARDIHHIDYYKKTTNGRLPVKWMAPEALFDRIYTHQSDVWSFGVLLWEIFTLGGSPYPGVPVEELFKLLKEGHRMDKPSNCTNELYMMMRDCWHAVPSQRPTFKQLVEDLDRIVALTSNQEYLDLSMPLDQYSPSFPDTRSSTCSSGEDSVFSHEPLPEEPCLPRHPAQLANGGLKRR
Chain of Vascular endothelial growth factor receptor 2 (P35968 whole entry): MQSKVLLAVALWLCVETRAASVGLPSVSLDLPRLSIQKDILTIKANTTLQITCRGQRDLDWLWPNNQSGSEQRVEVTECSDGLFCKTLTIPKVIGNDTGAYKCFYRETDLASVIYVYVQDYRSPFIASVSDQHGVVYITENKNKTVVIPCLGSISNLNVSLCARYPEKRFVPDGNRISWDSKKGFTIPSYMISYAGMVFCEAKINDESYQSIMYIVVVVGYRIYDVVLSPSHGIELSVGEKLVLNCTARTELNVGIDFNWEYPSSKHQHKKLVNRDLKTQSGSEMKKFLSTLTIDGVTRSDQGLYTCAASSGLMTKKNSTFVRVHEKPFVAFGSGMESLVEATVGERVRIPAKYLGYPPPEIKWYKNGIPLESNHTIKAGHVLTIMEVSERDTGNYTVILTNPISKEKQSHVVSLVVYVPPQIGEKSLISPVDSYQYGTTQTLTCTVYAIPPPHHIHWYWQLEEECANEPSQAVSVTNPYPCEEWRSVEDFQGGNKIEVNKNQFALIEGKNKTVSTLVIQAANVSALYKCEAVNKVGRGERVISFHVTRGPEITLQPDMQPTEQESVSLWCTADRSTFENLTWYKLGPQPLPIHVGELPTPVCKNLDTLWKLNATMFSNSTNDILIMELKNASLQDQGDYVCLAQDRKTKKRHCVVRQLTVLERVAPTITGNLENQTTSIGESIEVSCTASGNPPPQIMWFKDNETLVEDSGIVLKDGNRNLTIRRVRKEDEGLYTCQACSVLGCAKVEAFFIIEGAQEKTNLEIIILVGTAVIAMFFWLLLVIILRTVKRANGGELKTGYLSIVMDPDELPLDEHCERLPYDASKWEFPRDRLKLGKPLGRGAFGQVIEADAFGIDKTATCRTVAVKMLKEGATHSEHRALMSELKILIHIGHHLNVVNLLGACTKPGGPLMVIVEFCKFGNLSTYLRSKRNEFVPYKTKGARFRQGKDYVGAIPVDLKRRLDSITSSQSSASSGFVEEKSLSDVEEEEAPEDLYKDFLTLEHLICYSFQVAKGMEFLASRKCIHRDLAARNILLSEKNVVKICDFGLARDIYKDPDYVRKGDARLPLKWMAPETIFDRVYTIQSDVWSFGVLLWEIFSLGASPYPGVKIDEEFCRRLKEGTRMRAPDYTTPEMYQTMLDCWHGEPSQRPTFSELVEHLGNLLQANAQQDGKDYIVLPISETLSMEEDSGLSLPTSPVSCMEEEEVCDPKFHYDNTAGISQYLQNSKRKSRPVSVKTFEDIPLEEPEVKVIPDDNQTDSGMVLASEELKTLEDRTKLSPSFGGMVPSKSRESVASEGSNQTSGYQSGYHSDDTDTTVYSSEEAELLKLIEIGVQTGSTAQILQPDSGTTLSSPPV

| Structure (SMILES) | Compound recovery [9] | Compound recovery [10] | Compound recovery [12] | Compound recovery [13] | Compound recovery [14] | Compound recovery [18] | Compound recovery [19] | Compound recovery [20] | Compound recovery [22] | Compound recovery [23] | Compound recovery [24] | IC50 [26] [nM] | IC50 [27] [nM] | Compound recovery [28] [%] | Compound recovery [29] [%] | Compound recovery [30] [%] | Compound recovery [31] | Compound recovery [32] | Compound recovery [33] | Compound recovery [34] | further results |
| --- | --- | --- | --- | --- | --- | --- | --- | --- | --- | --- | --- | --- | --- | --- | --- | --- | --- | --- | --- | --- | --- |
| CC(=O)COc1cn2ncnc(Oc3ccc4[nH]c(C)cc4c3F)c2c1C | metabolite_not_detected | metabolite_not_detected | metabolite_not_detected | metabolite_not_detected | metabolite_not_detected | metabolite_detected | metabolite_detected | metabolite_detected |  |  |  |  |  |  |  |  |  |  |  |  | Compound recovery [1]: metabolite_detected; Compound recovery [2]: metabolite_detected; Compound recovery [3]: metabolite_detected; Compound recovery [4]: metabolite_detected; Compound recovery [5]: metabolite_detected; Compound recovery [6]: metabolite_detected; Compound recovery [7]: metabolite_detected; Compound recovery [8]: metabolite_detected; Compound recovery [11]: metabolite_not_detected; Compound recovery [15]: metabolite_detected; Compound recovery [16]: metabolite_detected; Compound recovery [17]: metabolite_detected; Compound recovery [21]: metabolite_detected |
| Cc1c(OC[C@@H](C)O)cn2ncnc(Oc3ccc4[nH]c(CO)cc4c3F)c12 |  |  |  |  |  | metabolite_detected | metabolite_detected | metabolite_detected | metabolite_not_detected | metabolite_not_detected | metabolite_not_detected | 78 | 760 | 1.5 | 1.2 | 1.1 | metabolite_not_detected | metabolite_not_detected | metabolite_not_detected | metabolite_not_detected | Compound recovery [25]: metabolite_detected |
| Cc1cc2c(F)c(Oc3ncnn4cc(OC[C@@H](C)OS(=O)(=O)O)c(C)c34)ccc2[nH]1 | 0.8% | 3.5% | 35.2% | metabolite_not_detected | 26.2% |  |  |  | 3.6% | 9.8% | 10.8% | 28 | 26 | 0.5 | 1.3 | 1.5 | metabolite_not_detected | metabolite_not_detected | metabolite_not_detected | 2.3% | Compound recovery [35]: metabolite_detected; AUC metabolite/AUC radiolabel [36]: 5.5%; AUC [37]: 1628.2 ugequiv/l.hr; AUC [38]: 755.8 ugequiv/l.hr; AUC [39]: 3611.4 ugequiv/l.hr; Compound recovery [40]: 2.1%; Compound recovery [41]: 15.2%; Compound recovery [42]: 1.9%; Compound recovery [43]: 1%; Compound recovery [44]: 1.3%; AUC metabolite/AUC radiolabel [45]: 1.1%; AUC metabolite/AUC radiolabel [46]: 1.2% |
